Patent US8598374B2, “GPR120 receptor agonists and uses thereof” (Metabolex, Inc, priority 2008, dated 2013)

Molecular target: T1, human GPR120 (Homo sapiens, UniProt Q5NUL3)
T1 construct: Flag (DYKDDDDK) (N); host or cells: HEK293 cells co-expressing Gqi5
T1 sequence (Q5NUL3 1-361): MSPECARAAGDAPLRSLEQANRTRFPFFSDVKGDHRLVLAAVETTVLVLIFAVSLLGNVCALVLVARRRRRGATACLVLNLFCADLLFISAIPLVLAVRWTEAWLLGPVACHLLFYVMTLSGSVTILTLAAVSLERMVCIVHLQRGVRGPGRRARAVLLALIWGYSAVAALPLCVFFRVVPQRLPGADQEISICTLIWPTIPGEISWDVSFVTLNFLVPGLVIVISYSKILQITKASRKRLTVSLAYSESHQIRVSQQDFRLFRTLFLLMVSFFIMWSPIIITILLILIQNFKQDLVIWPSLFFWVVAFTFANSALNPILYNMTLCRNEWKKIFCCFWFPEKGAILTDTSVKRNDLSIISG
Experiment: Intracellular Ca2+ assay (FLIPR Calcium 4, Flexstation) in human GPR120 stable cell line
Format: cell-based
Conditions: for % Activity (Ex. 25 Reference Compound): % activity at 2.5 μM compared to the maximal activity of the compound of Example 25 at 2.5 μM, HEK293 cells co-expressing Gqi5; for EC50: human GPR120 stably expressing cells, eight concentrations from 0.00001 to 20 μM
Experimental: Human GPR120 stable cell line was purchased from Multispan Inc (26219 Eden Landing Road, Hayward, Calif. 94545). This GPR120 cell line was generated in HEK293 cells co-expressing Gqi5. In this cell line, the Flag epitope tag (DYKDDDDK) was fused to the amino terminus of human GPR120 protein.
The concentration of intracellular Ca^2+ was measured as described below. Human GPR120 cells were plated in 96 well plates (Poly-D-Lysine coated black/clear Plate, Greiner Bio-One) at 70,000 cells per well and cultured overnight in conditions of 37° C. and 5% CO2. A Ca^2+ assay dye stock solution was prepared by adding 10 mL of assay buffer (HBSS/20 mM HEPES, pH 7.4) to FLIPR Calcium 4 Assay Bulk Kit (Molecular Devices). The 10 mL of Ca^2+ assay dye solution was prepared by further diluting 0.5 mL of Ca^2+ assay dye stock solution with 10 mL of assay buffer. The medium of the cells was removed and immediately 100 μL of the Ca^2+ assay dye solution was dispensed into each well followed by incubation at 37° C. and 5% CO2 for 50 minutes to incorporate the Ca^2+ dye into the cells. The cell plate was then placed in the Flexstation (Molecular Devices) for 20 minutes at 37° C. Compounds were dissolved in 100% DMSO and diluted to desired concentrations with assay buffer and placed in the Flexstation simultaneously with the cell plate for 20 minute incubation at 37° C. prior to reading. Fluorescence intensity was measured immediately following compound addition (25 μL/well) on the Flexstation at an excitation wavelength of 485 nm and an emission wavelength of 525 with 515 nm auto cutoff. The resulting increase in fluorescence intensities corresponds to increases in intracellular Ca^2+ levels.
Compounds were dissolved in 100% DMSO to a concentration of 20 mM to provide stock solutions. To determine activity against human GPR120, compounds were added with human GPR120 stably expressing cells (described above), at eight desired concentrations ranging from 0.00001 to 20 μM, in 96 well plates and fluorescence intensities were measured for 90 seconds with 2-second intervals. An EC50 value (concentration of the GPR120 agonist where 50% of the agonist's maximal activity is observed) was calculated using the changes (Max-Min) of fluorescence intensity.
To determine percent activity for a tested compound, the fluorescence intensity value obtained at a particular concentration were compared to the maximal fluorescence intensity value obtained for reference compound GW9508 (4-[[(3-phenoxyphenyl)methyl]amino]benzene propanoic acid; British Journal of Pharmacology 2006 148, 619-628) or the compound of Example 25. When GW9508 was used as the reference compound, the maximal activity of GW9508 at 6.7 μM was designated as 100% activity. When the compound of Example 25 was used as the reference compound, the maximal activity of the compound of Example 25 at 2.5 μM was designated as 100% activity. Typically, the GW9508 activity reached a maximum at a concentration of approximately 6.7 μM and typically the compound of Example 25 reached a maximum activity at approximately 2.5 μM.

SMILES	% Activity (Ex. 25 Reference Compound) [%]	EC50 [µM]
CCCc1cc(OCc2cc(Cl)cc3c2OC(C)(C)C3)c(F)cc1CCC(=O)O [Example 73, 3-(4-((5-chloro-2,2-dimethyl-2,3-dihydrobenzofuran-7-yl)methoxy)-5-fluoro-2-propylphenyl)propanoic acid]	114.85	
CC(Cc1ccc(OCc2cc(Cl)cc3c2OC(C)(C)C3=O)c(F)c1)C(=O)O (centres unmarked) [Example 77, 3-(4-((5-chloro-2,2-dimethyl-3-oxo-2,3-dihydrobenzofuran-7-yl)methoxy)-3-fluorophenyl)-2-methylpropanoic acid]	109.62	
CC(Cc1ccc(OCc2cc(Cl)cc3c2OC(C)(C)C3=O)c(C(F)(F)F)c1)C(=O)O (centres unmarked) [Example 79, 3-(4-((5-chloro-2,2-dimethyl-3-oxo-2,3-dihydrobenzofuran-7-yl)methoxy)-3-(trifluoromethyl)phenyl)-2-methylpropanoic acid]	3.85	
CC(Cc1ccc(OCc2cc(Cl)cc3c2OC(C)(C)C3O)c(F)c1)C(=O)O (centres unmarked) [Example 80, 3-(4-((5-chloro-3-hydroxy-2,2-dimethyl-2,3-dihydrobenzofuran-7-yl)methoxy)-3-fluorophenyl)-2-methylpropanoic acid]	86.25	
CC(Cc1ccc(OCc2cc(-c3ccc(Cl)cc3)cc3c2OC(C)(C)C3)cc1)C(=O)O (centres unmarked) [Example 82, 3-(4-((5-(4-chlorophenyl)-2,2-dimethyl-2,3-dihydrobenzofuran-7-yl)methoxy)phenyl)-2-methylpropanoic acid]	24	
COc1cccc(-c2cc(COc3ccc(CC(C)C(=O)O)cc3)c3c(c2)CC(C)(C)O3)c1 (centres unmarked) [Example 86, 3-(4-((5-(3-methoxyphenyl)-2,2-dimethyl-2,3-dihydrobenzofuran-7-yl)methoxy)phenyl)-2-methylpropanoic acid]	5.23	1 to 10
CC(Cc1ccc(OCc2cc(-c3cccc(C(F)(F)F)c3)cc3c2OC(C)(C)C3)cc1)C(=O)O (centres unmarked) [Example 87, 3-(4-((2,2-dimethyl-5-(3-(trifluoromethyl)phenyl)-2,3-dihydrobenzofuran-7-yl)methoxy)phenyl)-2-methylpropanoic acid]		1 to 10
CC(Cc1ccc(OCc2cc(Cl)cc3c2OC(C)(C)C3)c(CN(C)C)c1)C(=O)O (centres unmarked) [Example 88, 3-(4-((5-chloro-2,2-dimethyl-2,3-dihydrobenzofuran-7-yl)methoxy)-3-((dimethylamino)methyl)phenyl)-2-methylpropanoic acid]	118.92	1 to 10
CCN(CC)c1cc(COc2ccc(CC(C)C(=O)O)cc2)c2c(c1)CC(C)(C)O2 (centres unmarked) [Example 89, 3-(4-((5-(diethylamino)-2,2-dimethyl-2,3-dihydrobenzofuran-7-yl)methoxy)phenyl)-2-methylpropanoic acid]	82.28	1 to 10
CC(Cc1ccc(OCc2cc(-n3cnnn3)cc3c2OC(C)(C)C3)cc1)C(=O)O (centres unmarked) [Example 90, 3-(4-((2,2-dimethyl-5-(1H-tetrazol-1-yl)-2,3-dihydrobenzofuran-7-yl)methoxy)phenyl)-2-methylpropanoic acid]	75.86	1 to 10
CC(Cc1ccc(OCc2ccc(F)c3c2CC(C)(C)O3)cc1)C(=O)O (centres unmarked) [Example 91, 3-(4-((7-fluoro-2,2-dimethyl-2,3-dihydrobenzofuran-4-yl)methoxy)phenyl)-2-methylpropanoic acid]	121.29	1 to 10
CC1(C)Cc2c(COc3ccc4c(c3)CCC4CC(=O)O)ccc(F)c2O1 (centres unmarked) [Example 94, 2-(5-((7-fluoro-2,2-dimethyl-2,3-dihydrobenzofuran-4-yl)methoxy)-2,3-dihydro-1H-inden-1-yl)acetic acid]	98.45	
CC(Cc1ccc(OCc2c(F)ccc3c2CC(C)(C)O3)cc1)C(=O)O (centres unmarked) [Example 96, 3-(4-((5-fluoro-2,2-dimethyl-2,3-dihydrobenzofuran-4-yl)methoxy)phenyl)-2-methylpropanoic acid]	124.82	
CC1(C)Cc2c(ccc(F)c2COc2c(F)cc(C3CC3C(=O)O)cc2F)O1 (centres unmarked) [Example 99, 2-(3,5-difluoro-4-((5-fluoro-2,2-dimethyl-2,3-dihydrobenzofuran-4-yl)methoxy)phenyl)cyclopropanecarboxylic acid]	101.53	
Cc1cc(OCC(=O)O)ccc1OCc1cc(Cl)cc2c1OC(C)(C)C2 [Example 103, 2-(4-((5-chloro-2,2-dimethyl-2,3-dihydrobenzofuran-7-yl)methoxy)-3-methylphenoxy)acetic acid]	98.96	
CC(CC(=O)O)c1cc(F)c(OCc2cc(Cl)cc3c2OC(C)(C)C3)c(F)c1 (centres unmarked) [Example 106, 3-(4-((5-chloro-2,2-dimethyl-2,3-dihydrobenzofuran-7-yl)methoxy)-3,5-difluorophenyl)butanoic acid]	154.51	
COc1cc(COc2ccc(CC(C)C(=O)O)cc2)c2c(c1)CC(C)(C)O2 (centres unmarked) [Example 108, 3-(4-((5-methoxy-2,2-dimethyl-2,3-dihydrobenzofuran-7-yl)methoxy)phenyl)-2-methylpropanoic acid]	143.85	
CC(Cc1cc(F)c(OCc2cc(Cl)cc3c2OC(C)C3(C)C)c(F)c1)C(=O)O (centres unmarked) [Example 109, 3-(4-((5-chloro-2,3,3-trimethyl-2,3-dihydrobenzofuran-7-yl)methoxy)-3,5-difluorophenyl)-2-methylpropanoic acid]	72.36	
CC(Cc1cc(F)c(OCc2cc(OCc3ccccc3)cc3c2OC(C)(C)C3)c(F)c1)C(=O)O (centres unmarked) [Example 111, 3-(4-((5-(benzyloxy)-2,2-dimethyl-2,3-dihydrobenzofuran-7-yl)methoxy)-3,5-difluorophenyl)-2-methylpropanoic acid]	51.55	
CC1(C)Cc2cc(Cl)cc(COc3ccc4c(c3)CC(C(=O)O)C4)c2O1 (centres unmarked) [Example 112, 5-((5-chloro-2,2-dimethyl-2,3-dihydrobenzofuran-7-yl)methoxy)-2,3-dihydro-1H-indene-2-carboxylic acid]	115.42	
CC1(C)Cc2cc(F)cc(COc3ccc4cc(C(=O)O)ccc4c3)c2O1 [Example 114, 6-((5-fluoro-2,2-dimethyl-2,3-dihydrobenzofuran-7-yl)methoxy)-2-naphthoic acid]	123.58	
CC(C)Oc1cc(OCc2cc(F)cc3c2OC(C)(C)C3)ccc1CCC(=O)O [Example 115, 3-(4-((5-fluoro-2,2-dimethyl-2,3-dihydrobenzofuran-7-yl)methoxy)-2-isopropoxyphenyl)propanoic acid]	151.78	
CC(C)Oc1cc(OCc2cc(Cl)cc3c2OC(C)(C)C3)ccc1CCC(=O)O [Example 116, 3-(4-((5-chloro-2,2-dimethyl-2,3-dihydrobenzofuran-7-yl)methoxy)-2-isopropoxyphenyl)propanoic acid]	145.6	
Cc1cc2cc(Cl)cc(COc3ccc(CC(C)C(=O)O)cc3F)c2o1 (centres unmarked) [Example 120, 3-(4-((5-chloro-2-methylbenzofuran-7-yl)methoxy)-3-fluorophenyl)-2-methylpropanoic acid]	104.49	
